According to patent EP3015165A1, “MATERIAL AND METHOD FOR CAPTURING, DETECTING AND Q[…] SULPHUR COMPOUNDS” (priority 2014, dated 2016):
Values after ≈ are worked out from the molar mass of the structure shown.

Assays:
[1] = [gas]/[liq], grandeur sans dimension; cited from earlier work
[2] = couples H2S/HS^- et CH3SH/CH3S^-; cited from earlier work
[3] = exposition prolongée à forte concentration; cited from earlier work
[4] = Kinetics of the probe-target reaction in aqueous solution at neutral pH; conditions: pH=7,4, target 50 µM and DTNB 5 µM (Figure 2A)
Method: (§1) Or, en milieu acide, les VSC modèles, à savoir le sulfure d'hydrogène et le méthanethiol, sont peu solubles. La présente étude a donc été menée en solution à pH neutre et, par conséquent sur les formes déprotonées Na2S et (CH3)SNa des deux VSC modèles.
Cette étude a montré que la cinétique de la réaction est suffisamment rapide pour envisager de l'employer dans un xérogel comme réaction de transduction : en moins de 5 min, l'équilibre est atteint (Figure 2A). On peut remarquer également que la réaction de détection du (CH3)SNa est moins rapide que celle de Na2S, avec en outre un moins bon rendement.

[5] = Stability of the probe in solution as a function of pH; format: physicochemical; conditions: milieu basique, from pH 9 the disulphide bridge breaks by itself in a few hours
Excerpt: as §1

[6] = cited from earlier work
[7] = Solubility limit in ethanol; format: physicochemical; conditions: organic solvent or mixture, éthanol, read-out: limite de solubilité dans l'éthanol
Method: Le TMOS et l'éthanol sont mélangés dans un premier temps. Puis le volume désiré de DMPD à 0,5 M dans l'eau est introduit, suivi du volume désiré de FeCl3 à 0,5 M dans 0,267 M HCl. La quantité d'eau restante pour atteindre 1,44 mL suit l'ajout d'HCl provoquant un échauffement du sol qui est agité le temps de refroidir. Pour les formulations fortement dopées en DMPD, il est nécessaire de dissoudre la DMPD dans l'éthanol plutôt que dans l'eau. La limite de solubilité de la DMPD dans l'éthanol est de 21 mM.

Compound: S [H2S, sulfure d'hydrogène]
- constante de Henry Hcc [1]: 4,09.10^-1
- pKa [2]: 7,0
- concentration causing paralysie du nerf olfactif [3]: 100 à 150 ppm

Compound: O=C(O)c1cc(SSc2ccc([N+](=O)[O-])c(C(=O)O)c2)ccc1[N+](=O)[O-] [DTNB, acide 5,5'-dithiobis(2-nitrobenzoïque)]
- time to reach equilibrium of the reaction [4]: < 5 min
- stability in solution [5]: n'est pas stable

Compound: CS [CH3SH, méthanethiol]
- constante de Henry Hcc [1]: 1,23.10^-1
- pKa [2]: 12,0
- solubilité dans l'eau [6]: 0,48 mol.L^-1

Compound: CN(C)c1ccc(N)cc1 [DMPD, N,N-diméthylparaphénylènediamine]
- solubility [7]: 21 mM (≈ 2860 µg/mL)
